# Data reported in patent US9126999B2, “Tetrahydropyrazolopyrimidine compounds” (EISAI R&D MANAGEMENT CO., LTD., priority 2012, dated 2015).
# Several values for one entry are separate records, joined by “and”; a condition that tells them apart may be missing. Equal values may be shown once. Read-outs that look alike come from different tables or passages of the source.
# Assays:
# Mouse TLR7 = target: T1, Mouse TLR7 (Mus musculus, UniProt P58681); assay: Mouse spleen cell-based assay, R848 stimulus, IL-6 ELISA
# T1 construct: endogenous in cells; host or cells: female BALB/c mice, in vivo
# T1 sequence (P58681 27-1050): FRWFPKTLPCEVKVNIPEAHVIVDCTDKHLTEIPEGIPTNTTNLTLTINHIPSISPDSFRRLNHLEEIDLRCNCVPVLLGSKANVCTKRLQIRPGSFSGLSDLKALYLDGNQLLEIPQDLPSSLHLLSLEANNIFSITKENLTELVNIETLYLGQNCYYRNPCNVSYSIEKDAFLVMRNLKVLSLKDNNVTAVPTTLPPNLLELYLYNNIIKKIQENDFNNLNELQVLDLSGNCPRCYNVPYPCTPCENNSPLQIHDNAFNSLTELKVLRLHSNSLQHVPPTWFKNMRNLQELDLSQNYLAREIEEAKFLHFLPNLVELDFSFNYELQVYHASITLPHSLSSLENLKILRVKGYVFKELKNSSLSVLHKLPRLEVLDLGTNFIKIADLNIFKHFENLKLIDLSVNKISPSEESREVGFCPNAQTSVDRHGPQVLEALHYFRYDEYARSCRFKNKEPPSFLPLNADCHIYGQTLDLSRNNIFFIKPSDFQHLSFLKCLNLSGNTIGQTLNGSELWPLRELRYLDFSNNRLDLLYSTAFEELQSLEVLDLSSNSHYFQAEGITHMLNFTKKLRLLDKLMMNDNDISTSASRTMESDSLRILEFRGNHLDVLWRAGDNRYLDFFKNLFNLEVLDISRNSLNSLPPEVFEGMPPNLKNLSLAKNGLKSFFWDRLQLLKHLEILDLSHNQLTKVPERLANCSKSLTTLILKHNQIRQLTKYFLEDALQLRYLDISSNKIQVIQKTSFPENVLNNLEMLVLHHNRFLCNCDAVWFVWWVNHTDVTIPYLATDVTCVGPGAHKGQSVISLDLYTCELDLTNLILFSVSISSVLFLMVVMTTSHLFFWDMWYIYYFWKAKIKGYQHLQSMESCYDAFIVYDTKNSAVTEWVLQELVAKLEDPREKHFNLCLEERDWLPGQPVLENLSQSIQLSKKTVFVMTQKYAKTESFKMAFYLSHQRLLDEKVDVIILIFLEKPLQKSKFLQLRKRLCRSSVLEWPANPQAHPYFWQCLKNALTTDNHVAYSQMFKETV
# Experimental: Spleens were harvested from female BALB/c mice (Jackson Labs, Bar Harbor, Me.) euthanized by CO2. A single cell suspension was obtained by passing spleens through a 40 μm nylon cell strainer. Cells were washed twice with 50 ml PBS (Mediatech, Inc., Manassas, Va.) and red blood cells were lysed in 5 ml RBC Lysis buffer (eBioscience, Inc., San Diego, Calif.) for 5 minutes at room temperature. Cells were washed twice more in PBS and finally resuspended in supplemented RPMI-1640 at 2.5×10^6 cells/ml. Cells were plated at 100 μl/well (2.5×10^5 cells/well) in 96-well tissue culture treated plates (Falcon). Serial dilutions of compounds solubilized in 100% DMSO were added in triplicate to cells to yield a final concentration of 0.1% DMSO. Cells were incubated with compound for 30 minutes at 37° C., 5% CO2 before adding 100 μl/well of 740 nM R848 (Resiquimod; GLSynthesis, Worcester, Mass.) in complete media for a final concentration of 370 nM R848. Cells were incubated for 20 hours at 37° C., 5% CO2. Culture supernatants were collected, and levels of IL-6 were assessed by standard ELISA procedure according to the manufacturer's recommended protocol (BD Biosciences, Inc., San Diego, Calif.).
# Human TLR7/8 = test system: T2, Human TLR7/8; assay: Human PBMC cell-based assay, RNA-Ig (SL4-Ig) stimulus, cytokine ELISA
# T2 construct: IC50; other: Hu PBMC; ligand RNA-Ig; analyte IL-6; analyte TNFα; ligand R848; IC50 against the RNA-Ig TLR7/8 stimulus; cytokine responses to RNA-Ig complexes in vitro; potency against the RNA-Ig TLR7/8 stimulus versus HCQ
# Experimental: Briefly, 25 ml blood was diluted with 15 ml PBS (without Ca^2+, Mg^2+) in a 50 ml conical tube, and 12 ml Histopaque was underlaid using a spinal needle. Tubes were centrifuged for 45 minutes at 1200 rpm (350×g), and PBMC were collected from the buffy coat. Cells were then washed twice in PBS, and red blood cells were lysed by suspension in 5 ml ammonium chloride solution (1× Red Blood Cell Lysis Buffer, eBioscience) for 5 minutes at room temperature.
# Antagonist compounds solubilized and serial diluted in 100% DMSO were added in triplicate to cells to yield a final concentration of 0.1% DMSO (v/v). Hydroxychloroquine (Acros Organics) solubilized and serial diluted in PBS was added in triplicate to cells. […] The resulting “RNA-Ig” stimulus was incubated at room temperature for 15-30 minutes before adding to cells. PBMC were incubated with the various TLR agonists for 20 hours at 37° C., 5% CO2. Cell culture supernatants were collected, and levels of various human cytokines were assessed as indicated by standard ELISA procedure according to the manufacturer's recommended protocol (BD Biosciences, Inc., San Diego, Calif.).
# [1] = Mouse Splenocyte IL-6 Inhibition (R848 Ligand), read-out: Mouse Splenocyte IC50
# [2] = Human PBMC IL-6 Inhibition (SL4-Ig Ligand), read-out: Human PBMC IC50
IC50 (Mouse TLR7; [1]),IC50 (Human TLR7/8; [2]),SMILES,"IC50 (Mouse TLR7; Mu Spleen, ligand R848, analyte IL-6, read-out: IC50)",cytokine responses to RNA-Ig complexes in vitro (Human TLR7/8),"IC50 (Human TLR7/8; Hu PBMC, ligand RNA-Ig, analyte TNFα, read-out: IC50)","potency against the RNA-Ig TLR7/8 stimulus versus HCQ (Human TLR7/8; ratio of IC50 values, more potent than HCQ)",IC50 (Human TLR7/8; read-out: IC50 against the RNA-Ig TLR7/8 stimulus)
680 nM,676 nM,COc1ccc([C@@H]2C[C@H](C(F)(F)F)n3nc(-c4ccncc4)cc3N2)cc1OC [ER-885454],,,,,
3110 nM,2160 nM,Cc1nn(C)cc1[C@@H]1C[C@H](C(F)(F)F)n2nc(-c3ccc(NC(N)=O)cc3)cc2N1 [ER-894595],,,,,
3020 nM,1750 nM,Cc1nn(C)cc1[C@H]1C[C@@H](C(F)(F)F)n2nc(-c3ccc(NC(N)=O)cc3)cc2N1 [ER-894596],,,,,

SMILES,IC50 (Mouse TLR7; [1]),IC50 (Human TLR7/8; [2]),"IC50 (Mouse TLR7; Mu Spleen, ligand R848, analyte IL-6, read-out: IC50)",cytokine responses to RNA-Ig complexes in vitro (Human TLR7/8),"IC50 (Human TLR7/8; Hu PBMC, ligand RNA-Ig, analyte TNFα, read-out: IC50)","potency against the RNA-Ig TLR7/8 stimulus versus HCQ (Human TLR7/8; ratio of IC50 values, more potent than HCQ)",IC50 (Human TLR7/8; read-out: IC50 against the RNA-Ig TLR7/8 stimulus)
"COc1ccc([C@@H]2C[C@H](C(F)(F)F)n3nc(-c4ccc(C(=O)N5CCNCC5)cc4)cc3N2)cc1OC [ER-892887, (4-((5S,7R)-5-(3,4-dimethoxyphenyl)-7-(trifluoromethyl)-4,5,6,7-tetrahydropyrazolo[1,5-a]pyrimidin-2-yl)phenyl)(piperazin-1-yl)methanone]",70 nM and 330 nM,40 nM and 51 nM,70 nM,blocks,13 nM,approximately 100 fold,15 nM
